According to PubChem BioAssay (NCI):
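Protocol summary: plate cells (96-well), add compound at 5 concentrations, incubate 48 h, interpolate endpoints linearly. Definition used: TGI = concentration required for complete inhibition of growth.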

What was measured:
Assay in all cases: NCI tumour cell line growth inhibition, 48 h
KM20L2 colon = tested on: KM20L2 colon
HL-60(TB) leukemia = tested on: HL-60(TB) leukemia
SK-MEL-28 melanoma = tested on: SK-MEL-28 melanoma
U251 CNS = tested on: U251 CNS
UACC-257 melanoma = tested on: UACC-257 melanoma
SN12K1 renal = tested on: SN12K1 renal
DLD-1 colon = tested on: DLD-1 colon
CCRF-CEM leukemia = tested on: CCRF-CEM leukemia
SW-620 colon = tested on: SW-620 colon
A498 renal = tested on: A498 renal
MCF7 breast = tested on: MCF7 breast
SK-MEL-5 melanoma = tested on: SK-MEL-5 melanoma
NCI-H522 lung = tested on: NCI-H522 lung
RPMI-8226 leukemia = tested on: RPMI-8226 leukemia
SK-MEL-2 melanoma = tested on: SK-MEL-2 melanoma
UACC-62 melanoma = tested on: UACC-62 melanoma
HT29 colon = tested on: HT29 colon
EKVX NSCLC = tested on: EKVX NSCLC
CAKI-1 renal = tested on: CAKI-1 renal
OVCAR-4 ovarian = tested on: OVCAR-4 ovarian
NCI-H226 lung = tested on: NCI-H226 lung
HOP-62 NSCLC = tested on: HOP-62 NSCLC
HCT-116 colon = tested on: HCT-116 colon
OVCAR-3 ovarian = tested on: OVCAR-3 ovarian
COLO 205 colon = tested on: COLO 205 colon
OVCAR-8 ovarian = tested on: OVCAR-8 ovarian
NCI/ADR-RES ovarian = tested on: NCI/ADR-RES ovarian
K-562 leukemia = tested on: K-562 leukemia
NCI-H460 lung = tested on: NCI-H460 lung
P388/ADR leukemia = tested on: P388/ADR leukemia
SNB-78 CNS = tested on: SNB-78 CNS
HCC-2998 colon = tested on: HCC-2998 colon
HOP-18 NSCLC = tested on: HOP-18 NSCLC
NCI-H23 lung = tested on: NCI-H23 lung
SNB-19 CNS = tested on: SNB-19 CNS
HOP-92 NSCLC = tested on: HOP-92 NSCLC
KM12 colon = tested on: KM12 colon
P388 leukemia = tested on: P388 leukemia
DMS 114 small cell lung = tested on: DMS 114 small cell lung
RXF 393 renal = tested on: RXF 393 renal
SN12C renal = tested on: SN12C renal
SF-295 CNS = tested on: SF-295 CNS
MOLT-4 leukemia = tested on: MOLT-4 leukemia
IGROV1 ovarian = tested on: IGROV1 ovarian
LOX IMVI melanoma = tested on: LOX IMVI melanoma
HCT-15 colon = tested on: HCT-15 colon
M19-MEL melanoma = tested on: M19-MEL melanoma
DMS 273 small cell lung = tested on: DMS 273 small cell lung
MALME-3M melanoma = tested on: MALME-3M melanoma
SK-OV-3 ovarian = tested on: SK-OV-3 ovarian
A549 NSCLC = tested on: A549 NSCLC
UO-31 renal = tested on: UO-31 renal
XF 498 CNS = tested on: XF 498 CNS
SF-539 CNS = tested on: SF-539 CNS
SF-268 CNS = tested on: SF-268 CNS
SNB-75 CNS = tested on: SNB-75 CNS
OVCAR-5 ovarian = tested on: OVCAR-5 ovarian

Question: With `COc1cc(C)c2c(=O)c3c(oc2c1)C(=O)c1c(O)c(OC)cc(O)c1C3=O` as the compound, how does the TGI (KM20L2 colon) read?
Answer: 19.9 µM

Question: And the TGI (HL-60(TB) leukemia)?
Answer: 2.57 µM

Question: And the TGI (SK-MEL-28 melanoma)?
Answer: 7.44 µM

Question: And the TGI (U251 CNS)?
Answer: 2.53 µM

Question: And the TGI (UACC-257 melanoma)?
Answer: 3.1 µM

Question: What about the TGI (SN12K1 renal) of the same compound?
Answer: 2.69 µM

Question: What about the TGI (DLD-1 colon) of the same compound?
Answer: 10.1 µM

Question: What about the TGI (CCRF-CEM leukemia) of the same compound?
Answer: 5.12 µM

Question: And the TGI (SW-620 colon)?
Answer: 10.7 µM

Question: And the TGI (A498 renal)?
Answer: 5.54 µM

Question: And the TGI (MCF7 breast)?
Answer: 9.34 µM

Question: What about the TGI (SK-MEL-5 melanoma) of the same compound?
Answer: 2.33 µM

Question: And the TGI (NCI-H522 lung)?
Answer: 9.17 µM

Question: What about the TGI (RPMI-8226 leukemia) of the same compound?
Answer: 4.48 µM

Question: What about the TGI (SK-MEL-2 melanoma) of the same compound?
Answer: 1.88 µM

Question: And the TGI (UACC-62 melanoma)?
Answer: 4.61 µM

Question: And the TGI (HT29 colon)?
Answer: > 50 µM

Question: What about the TGI (EKVX NSCLC) of the same compound?
Answer: 3.25 µM

Question: And the TGI (CAKI-1 renal)?
Answer: 1.85 µM

Question: What about the TGI (OVCAR-4 ovarian) of the same compound?
Answer: 4.28 µM

Question: And the TGI (NCI-H226 lung)?
Answer: 0.524 µM

Question: What about the TGI (HOP-62 NSCLC) of the same compound?
Answer: 3.98 µM

Question: What about the TGI (HCT-116 colon) of the same compound?
Answer: 3.42 µM

Question: And the TGI (OVCAR-3 ovarian)?
Answer: 2.4 µM

Question: What about the TGI (COLO 205 colon) of the same compound?
Answer: > 43.4 µM

Question: And the TGI (OVCAR-8 ovarian)?
Answer: 0.551 µM

Question: What about the TGI (NCI/ADR-RES ovarian) of the same compound?
Answer: 2.62 µM

Question: And the TGI (K-562 leukemia)?
Answer: 4.39 µM

Question: And the TGI (NCI-H460 lung)?
Answer: 3.97 µM

Question: What about the TGI (P388/ADR leukemia) of the same compound?
Answer: > 50 µM

Question: And the TGI (SNB-78 CNS)?
Answer: 7.2 µM

Question: And the TGI (HCC-2998 colon)?
Answer: 25 µM

Question: What about the TGI (HOP-18 NSCLC) of the same compound?
Answer: 3.9 µM

Question: What about the TGI (NCI-H23 lung) of the same compound?
Answer: 3.38 µM

Question: What about the TGI (SNB-19 CNS) of the same compound?
Answer: 7.89 µM

Question: What about the TGI (HOP-92 NSCLC) of the same compound?
Answer: 1.26 µM

Question: What about the TGI (KM12 colon) of the same compound?
Answer: 11.9 µM

Question: And the TGI (P388 leukemia)?
Answer: > 50 µM

Question: And the TGI (DMS 114 small cell lung)?
Answer: 1.72 µM

Question: And the TGI (RXF 393 renal)?
Answer: 2.71 µM

Question: What about the TGI (SN12C renal) of the same compound?
Answer: 5.3 µM

Question: What about the TGI (SF-295 CNS) of the same compound?
Answer: 3.23 µM

Question: What about the TGI (MOLT-4 leukemia) of the same compound?
Answer: 4.6 µM

Question: And the TGI (IGROV1 ovarian)?
Answer: 4.29 µM

Question: And the TGI (LOX IMVI melanoma)?
Answer: 1.24 µM

Question: And the TGI (HCT-15 colon)?
Answer: 3.79 µM

Question: What about the TGI (M19-MEL melanoma) of the same compound?
Answer: 4.04 µM

Question: What about the TGI (DMS 273 small cell lung) of the same compound?
Answer: 1.8 µM

Question: What about the TGI (MALME-3M melanoma) of the same compound?
Answer: 3.83 µM

Question: And the TGI (SK-OV-3 ovarian)?
Answer: 3.98 µM

Question: And the TGI (A549 NSCLC)?
Answer: 7.84 µM

Question: And the TGI (UO-31 renal)?
Answer: 3.62 µM

Question: And the TGI (XF 498 CNS)?
Answer: 2.29 µM

Question: What about the TGI (SF-539 CNS) of the same compound?
Answer: 4.19 µM

Question: What about the TGI (SF-268 CNS) of the same compound?
Answer: > 50 µM

Question: And the TGI (SNB-75 CNS)?
Answer: 3.84 µM

Question: And the TGI (OVCAR-5 ovarian)?
Answer: 5.36 µM
